According to US12679843B2, “Pyrrolopyrimidine amines as complement inhibitors” (BioCryst Pharmaceuticals, Inc., priority 2020, dated 2026):

biological target: Factor D (Homo sapiens, UniProt P00746); experiment: Factor D esterolytic assay (Z-Lys-SBzl thioester substrate, DTNB, 405 nm); assay type: biochemical; conditions: substrate Z-Lys-SBzl 1.29 mM, 100 mM HEPES, 500 mM NaCl, pH 7.5, 10% DMSO, tested a minimum of three times
How it was run: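 Human Factor D hydrolysis of Z-Lys-SBzl (1.29 mM) monitored at 405 nm via DTNB thiol detection for 600 s, 690 nm background subtracted. Buffer 100 mM HEPES, 500 mM NaCl, pH 7.5, 10% DMSO; substrate added immediately or after room-temperature preincubation. IC50 from percent inhibition of rate, at least three tests.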

Factor D, sequence (P00746 26-253): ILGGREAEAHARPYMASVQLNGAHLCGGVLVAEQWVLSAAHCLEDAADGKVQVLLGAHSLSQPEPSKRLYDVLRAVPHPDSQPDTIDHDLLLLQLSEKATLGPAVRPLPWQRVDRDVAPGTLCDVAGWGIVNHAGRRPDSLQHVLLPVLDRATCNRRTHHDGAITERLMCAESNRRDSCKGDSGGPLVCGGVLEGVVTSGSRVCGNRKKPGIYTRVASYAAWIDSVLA

IC50	SMILES
< 100 nM	Cc1ccc(Cl)nc1NC(=O)[C@@H]1C[C@@]2(C)C[C@H]2N1C(=O)Cn1c2ncnc(N)c2c2cc(C(F)(F)F)cc(C)c21 [Compound 332c, (1R,3S,5R)-2-(2-(4-amino-8-methyl-6-(trifluoromethyl)-9H-pyrimido[4,5-b]indol-9-yl)acetyl)-N-(6-chloro-3-methylpyridin-2-yl)-5-methyl-2-azabicyclo[3.1.0]hexane-3-carboxamide]
< 100 nM	Cc1cc(F)c(Br)nc1NC(=O)[C@@H]1C[C@@]2(C)C[C@H]2N1C(=O)Cn1c2ncnc(N)c2c2cc(C(F)(F)F)cc(C)c21 [Compound 333c, (1R,3S,5R)-2-(2-(4-amino-8-methyl-6-(trifluoromethyl)-9H-pyrimido[4,5-b]indol-9-yl)acetyl)-N-(6-bromo-5-fluoro-3-methylpyridin-2-yl)-5-methyl-2-azabicyclo[3.1.0]hexane-3-carboxamide]
< 100 nM	C[C@@]12C[C@@H](C(=O)Nc3cccc(Br)n3)N(C(=O)Cn3c4ccc(OC(F)(F)F)cc4c4c(N)ncnc43)[C@@H]1C2 [Compound 334a, (1R,3S,5R)-2-(2-(4-amino-6-(trifluoromethoxy)-9H-pyrimido[4,5-b]indol-9-yl)acetyl)-N-(6-bromopyridin-2-yl)-5-methyl-2-azabicyclo[3.1.0]hexane-3-carboxamide]
< 100 nM	Nc1ncnc2c1c1cc(-c3ccc(F)cc3)ccc1n2CC(=O)N1[C@@H]2C[C@@H]2C[C@H]1C(=O)Nc1cccc(Br)n1 [Compound 335c, (1R,3S,5R)-2-(2-(4-amino-6-(4-fluorophenyl)-9H-pyrimido[4,5-b]indol-9-yl)acetyl)-N-(6-bromopyridin-2-yl)-2-azabicyclo[3.1.0]hexane-3-carboxamide]
< 100 nM	C[C@@]12C[C@@H](C(=O)Nc3cccc(Br)n3)N(C(=O)Cn3c4ccc(-c5ccco5)cc4c4c(N)ncnc43)[C@@H]1C2 [Compound 336c, (1R,3S,5R)-2-(2-(4-amino-6-(furan-2-yl)-9H-pyrimido[4,5-b]indol-9-yl)acetyl)-N-(6-bromopyridin-2-yl)-5-methyl-2-azabicyclo[3.1.0]hexane-3-carboxamide]
< 100 nM	C[C@@]12C[C@@H](C(=O)Nc3cccc(Br)n3)N(C(=O)Cn3c4ccc(-c5ccc(F)cc5)cc4c4c(N)ncnc43)[C@@H]1C2 [Compound 337a, (1R,3S,5R)-2-(2-(4-amino-6-(4-fluorophenyl)-9H-pyrimido[4,5-b]indol-9-yl)acetyl)-N-(6-bromopyridin-2-yl)-5-methyl-2-azabicyclo[3.1.0]hexane-3-carboxamide]
< 100 nM	C[C@@]12C[C@@H](C(=O)Nc3cccc(Br)n3)N(C(=O)Cn3c4ccc(C5CCCC5)cc4c4c(N)ncnc43)[C@@H]1C2 [Compound 338e, (1R,3S,5R)-2-(2-(4-amino-6-cyclopentyl-9H-pyrimido[4,5-b]indol-9-yl)acetyl)-N-(6-bromopyridin-2-yl)-5-methyl-2-azabicyclo[3.1.0]hexane-3-carboxamide]
< 100 nM	COCc1ccc2c(c1)c1c(N)ncnc1n2CC(=O)N1[C@@H]2C[C@@H]2C[C@H]1C(=O)Nc1cccc(Br)n1 [Compound 339g, (1R,3S,5R)-2-(2-(4-amino-6-(methoxymethyl)-9H-pyrimido[4,5-b]indol-9-yl)acetyl)-N-(6-bromopyridin-2-yl)-2-azabicyclo[3.1.0]hexane-3-carboxamide]
< 100 nM	COCc1ccc2c(c1)c1c(N)ncnc1n2CC(=O)N1[C@H](C(=O)Nc2cccc(Br)n2)C[C@@]2(C)C[C@@H]12 [Compound 340a, (1R,3S,5R)-2-(2-(4-amino-6-(methoxymethyl)-9H-pyrimido[4,5-b]indol-9-yl)acetyl)-N-(6-bromopyridin-2-yl)-5-methyl-2-azabicyclo[3.1.0]hexane-3-carboxamide]

Second part, the compound before the results:

SMILES	IC50
Cc1ccc(Br)nc1NC(=O)[C@@H]1C[C@@](C)(F)CN1C(=O)Cn1c2ncnc(N)c2c2cc(C(F)(F)F)cc(C)c21 [Compound 323a, (2S,4R)-1-(2-(4-amino-8-methyl-6-(trifluoromethyl)-9H-pyrimido[4,5-b]indol-9-yl)acetyl)-N-(6-bromo-3-methylpyridin-2-yl)-4-fluoro-4-methylpyrrolidine-2-carboxamide]	< 100 nM
Cc1cc(C(F)(F)F)cc2c3c(N)ncnc3n(CC(=O)N3CCS[C@H]3C(=O)Nc3cccc(Br)n3)c12 [Compound 324a, (S)-3-(2-(4-amino-8-methyl-6-(trifluoromethyl)-9H-pyrimido[4,5-b]indol-9-yl)acetyl)-N-(6-bromopyridin-2-yl)thiazolidine-2-carboxamide]	< 100 nM
Cc1cc(C(F)(F)F)cc2c3c(N)ncnc3n(CC(=O)N3C[C@H](F)C[C@H]3C(=O)Nc3cncc(Cl)n3)c12 [Compound 325c, (2S,4R)-1-(2-(4-amino-8-methyl-6-(trifluoromethyl)-9H-pyrimido[4,5-b]indol-9-yl)acetyl)-N-(6-chloropyrazin-2-yl)-4-fluoropyrrolidine-2-carboxamide]	< 100 nM
Cc1cc(C(F)(F)F)cc2c3c(N)ncnc3n(CC(=O)N3[C@@H]4C[C@@H]4C[C@H]3C(=O)Nc3cncc(Cl)n3)c12 [Compound 326c, (1R,3S,5R)-2-(2-(4-amino-8-methyl-6-(trifluoromethyl)-9H-pyrimido[4,5-b]indol-9-yl)acetyl)-N-(6-chloropyrazin-2-yl)-2-azabicyclo[3.1.0]hexane-3-carboxamide]	< 100 nM
Cc1cc(C(F)(F)F)cc2c3c(N)ncnc3n(CC(=O)N3[C@H](C(=O)Nc4cncc(Cl)n4)C[C@@]4(C)C[C@@H]34)c12 [Compound 327c, (1R,3S,5R)-2-(2-(4-amino-8-methyl-6-(trifluoromethyl)-9H-pyrimido[4,5-b]indol-9-yl)acetyl)-N-(6-chloropyrazin-2-yl)-5-methyl-2-azabicyclo[3.1.0]hexane-3-carboxamide]	< 100 nM
COc1cc2c(cc1C)c1c(N)ncnc1n2CC(=O)N1[C@@H]2C[C@@H]2C[C@H]1C(=O)Nc1cccc(Br)n1 [Compound 328f, (1R,3S,5R)-2-(2-(4-amino-7-methoxy-6-methyl-9H-pyrimido[4,5-b]indol-9-yl)acetyl)-N-(6-bromopyridin-2-yl)-2-azabicyclo[3.1.0]hexane-3-carboxamide]	< 100 nM
COc1cc2c(cc1C)c1c(N)ncnc1n2CC(=O)N1[C@H](C(=O)Nc2cccc(Br)n2)C[C@@]2(C)C[C@@H]12 [Compound 329a, (1R,3S,5R)-2-(2-(4-amino-7-methoxy-6-methyl-9H-pyrimido[4,5-b]indol-9-yl)acetyl)-N-(6-bromopyridin-2-yl)-5-methyl-2-azabicyclo[3.1.0]hexane-3-carboxamide]	< 100 nM
COc1cc2c3c(N)ncnc3n(CC(=O)N3[C@@H]4C[C@@H]4C[C@H]3C(=O)Nc3cccc(Br)n3)c2cc1F [Compound 330f, (1R,3S,5R)-2-(2-(4-amino-7-fluoro-6-methoxy-9H-pyrimido[4,5-b]indol-9-yl)acetyl)-N-(6-bromopyridin-2-yl)-2-azabicyclo[3.1.0]hexane-3-carboxamide]	< 100 nM
COc1cc2c3c(N)ncnc3n(CC(=O)N3[C@H](C(=O)Nc4cccc(Br)n4)C[C@@]4(C)C[C@@H]34)c2cc1F [Compound 331a, (1R,3S,5R)-2-(2-(4-amino-7-fluoro-6-methoxy-9H-pyrimido[4,5-b]indol-9-yl)acetyl)-N-(6-bromopyridin-2-yl)-5-methyl-2-azabicyclo[3.1.0]hexane-3-carboxamide]	< 100 nM
